This note sets out measurements from ChEMBL document CHEMBL4376854, “Investigation of the Adrenergic and Opioid Binding Affinities, Metabolic Stability, Plasma Protein Binding Properties, and Functional Effects of Selected Indole-Based Kratom Alkaloids” (J Med Chem, 2020).

Usually inhibition stands for the relative decrease from the control value, in per cent. As usually defined, the Ki is a dissociation constant, usually derived from enzyme kinetics or from competition with a known ligand. By Emax is commonly meant the size of the effect at its maximum, as opposed to the concentration needed.

Series [1] addresses Delta-type opioid receptor (Homo sapiens, UniProt P41143). Briefly: Displacement of [3H]DADLE from human recombinant delta opioid receptor expressed in rat Chem-1 (RBL) cell membranes at 10000 nM incubated for 60 mins relative to control. A general note: In a radioligand displacement assay an active substance lowers the binding of a labelled ligand.
Series [2] concerns the target Kappa-type opioid receptor (Homo sapiens, UniProt P41145). Put plainly: Agonist activity at human recombinant kappa opioid receptor expressed in rat RBL cells assessed as stimulation of intracellular calcium levels incubated at room temperature by fluorimetry. It counts as functional, cell-based. In general terms: Calcium flux is commonly read through the fluorescence of an indicator in the cells.

The subject of series [3] is Rattus norvegicus. Put plainly: Antinociceptive activity in Sprague-Dawley rat dosed intravenously using cumulative dosing every 5 mins until rat maxed-out on hot plate by hot plate test relative to control. It counts as functional. (Hot-plate and tail-flick tests time the reaction to a heat stimulus.)
Series [4] has as its system Rattus norvegicus. Put plainly: Antinociceptive activity in Sprague-Dawley rat dosed intravenously using cumulative dosing every 5 mins until rat maxed-out on hot plate co-treated with 0.1 mg/kg naltrexone by hot plate test. It counts as functional, organism-based.
Series [5] in a line: Toxicity in Sprague-Dawley rat assessed as induction of hypothermia at 0.0032 to 10 mg/kg, iv. The class given is organism-based. Particulars: in vivo.
Series [6] concerns the target T1, Alpha-1A adrenergic receptor (Homo sapiens) (UniProt P35348).
T1 sequence (whole entry): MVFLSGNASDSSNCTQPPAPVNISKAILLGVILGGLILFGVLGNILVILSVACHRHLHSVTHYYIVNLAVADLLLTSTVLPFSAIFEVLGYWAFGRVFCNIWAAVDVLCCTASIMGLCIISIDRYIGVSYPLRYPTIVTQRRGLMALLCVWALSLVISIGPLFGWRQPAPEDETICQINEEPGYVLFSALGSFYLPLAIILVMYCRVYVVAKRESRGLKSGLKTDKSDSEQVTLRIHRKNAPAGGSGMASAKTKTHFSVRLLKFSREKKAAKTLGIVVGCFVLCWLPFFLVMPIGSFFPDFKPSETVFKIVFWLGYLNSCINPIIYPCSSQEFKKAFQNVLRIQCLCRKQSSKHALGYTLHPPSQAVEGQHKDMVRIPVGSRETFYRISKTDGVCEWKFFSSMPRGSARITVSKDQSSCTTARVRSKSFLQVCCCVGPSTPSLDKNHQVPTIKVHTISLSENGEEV
The note with it: CHO, 100 nM.

Series [7] has as its target T2, Alpha-2A adrenergic receptor (Homo sapiens) (UniProt P08913).
T2 sequence (whole entry): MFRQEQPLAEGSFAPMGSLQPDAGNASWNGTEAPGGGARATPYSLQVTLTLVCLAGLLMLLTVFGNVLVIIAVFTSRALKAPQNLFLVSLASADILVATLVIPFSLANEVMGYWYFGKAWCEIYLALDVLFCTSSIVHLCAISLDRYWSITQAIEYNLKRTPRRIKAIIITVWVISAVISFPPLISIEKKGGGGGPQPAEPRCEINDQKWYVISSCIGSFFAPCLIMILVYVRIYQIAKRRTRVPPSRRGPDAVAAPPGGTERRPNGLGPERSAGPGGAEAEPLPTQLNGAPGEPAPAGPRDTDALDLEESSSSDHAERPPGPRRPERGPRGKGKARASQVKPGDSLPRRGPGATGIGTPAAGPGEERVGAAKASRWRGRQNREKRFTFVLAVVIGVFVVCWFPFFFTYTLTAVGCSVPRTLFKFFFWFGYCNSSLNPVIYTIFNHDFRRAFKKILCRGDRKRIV
The note with it: CHO, 100 nM.

Series [8] concerns the target T3, Alpha-2B adrenergic receptor (Homo sapiens) (UniProt P18089).
T3 sequence (whole entry): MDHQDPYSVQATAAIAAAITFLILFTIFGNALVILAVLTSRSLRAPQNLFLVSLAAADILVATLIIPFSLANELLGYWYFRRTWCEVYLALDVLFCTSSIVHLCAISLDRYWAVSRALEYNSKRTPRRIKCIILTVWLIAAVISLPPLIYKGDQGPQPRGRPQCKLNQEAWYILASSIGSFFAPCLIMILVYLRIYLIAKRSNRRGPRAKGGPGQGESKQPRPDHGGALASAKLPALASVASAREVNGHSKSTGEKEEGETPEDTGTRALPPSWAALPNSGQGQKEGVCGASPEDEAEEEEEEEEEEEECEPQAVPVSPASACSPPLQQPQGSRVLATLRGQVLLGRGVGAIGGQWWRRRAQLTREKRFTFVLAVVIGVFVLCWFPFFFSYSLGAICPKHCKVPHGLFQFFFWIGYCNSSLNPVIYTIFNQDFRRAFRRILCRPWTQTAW
Particulars: CHO, 100 nM.

Series [9] concerns the target T4, Alpha-1D adrenergic receptor (Homo sapiens) (UniProt P25100).
T4 sequence (whole entry): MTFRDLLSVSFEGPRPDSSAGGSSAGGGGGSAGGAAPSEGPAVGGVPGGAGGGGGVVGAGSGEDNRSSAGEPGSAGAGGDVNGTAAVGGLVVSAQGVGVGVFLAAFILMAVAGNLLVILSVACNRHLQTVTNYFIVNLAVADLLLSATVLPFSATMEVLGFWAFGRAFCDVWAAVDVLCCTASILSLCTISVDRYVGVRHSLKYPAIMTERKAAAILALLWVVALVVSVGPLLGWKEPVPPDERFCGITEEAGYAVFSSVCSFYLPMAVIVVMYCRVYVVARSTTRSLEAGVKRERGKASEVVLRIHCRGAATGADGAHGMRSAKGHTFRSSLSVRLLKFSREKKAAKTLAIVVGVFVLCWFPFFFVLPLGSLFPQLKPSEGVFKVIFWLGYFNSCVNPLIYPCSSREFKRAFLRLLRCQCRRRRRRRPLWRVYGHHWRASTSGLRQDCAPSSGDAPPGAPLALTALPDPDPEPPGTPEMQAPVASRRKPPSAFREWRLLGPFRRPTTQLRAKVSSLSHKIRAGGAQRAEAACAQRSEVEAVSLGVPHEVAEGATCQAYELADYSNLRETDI
The note with it: CHO, 10000 nM.

In series [10] the target is T5, Mu-type opioid receptor (Homo sapiens, UniProt P35372). Particulars: HEK293, 10000 nM.
T5 sequence (P35372 whole entry): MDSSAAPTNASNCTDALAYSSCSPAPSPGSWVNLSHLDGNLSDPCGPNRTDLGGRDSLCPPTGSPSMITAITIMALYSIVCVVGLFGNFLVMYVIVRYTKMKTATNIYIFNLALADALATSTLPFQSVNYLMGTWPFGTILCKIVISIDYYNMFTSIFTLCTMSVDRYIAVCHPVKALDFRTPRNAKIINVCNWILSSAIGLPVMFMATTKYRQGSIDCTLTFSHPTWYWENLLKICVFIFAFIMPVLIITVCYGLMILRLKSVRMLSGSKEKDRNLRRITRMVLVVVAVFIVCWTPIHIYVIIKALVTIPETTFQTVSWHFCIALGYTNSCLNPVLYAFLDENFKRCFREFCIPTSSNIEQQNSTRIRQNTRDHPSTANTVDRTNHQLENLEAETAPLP
For series [11], the target named is T6, Alpha-1A adrenergic receptor (Homo sapiens, UniProt P35348).
T6 sequence (P35348 whole entry): T1 sequence (whole entry)
Briefly: Displacement of [3H]prazosin from human recombinant adrenergic alpha-1A receptor expressed in CHO cell membranes incubated for 60 mins.

Series [12] deals with T7, Alpha-1D adrenergic receptor (Homo sapiens, UniProt P25100).
T7 sequence (P25100 whole entry): T4 sequence (whole entry)
Put plainly: Displacement of [3H]prazosin from human recombinant adrenergic alpha-1D receptor expressed in CHO cell membranes incubated for 60 mins.

Series [13] addresses T8, Alpha-2B adrenergic receptor (Homo sapiens, UniProt P18089).
T8 sequence (P18089 whole entry): T3 sequence (whole entry)
Put plainly: biochemical. The class given is cell-based, CHO.

Series [14] deals with T5, Mu-type opioid receptor. Particulars: HEK293, 100 nM.
Series [15] deals with Nociceptin receptor (Homo sapiens) (UniProt P41146). Particulars: 100 nM.
Nociceptin receptor (Homo sapiens), sequence (P41146 whole entry): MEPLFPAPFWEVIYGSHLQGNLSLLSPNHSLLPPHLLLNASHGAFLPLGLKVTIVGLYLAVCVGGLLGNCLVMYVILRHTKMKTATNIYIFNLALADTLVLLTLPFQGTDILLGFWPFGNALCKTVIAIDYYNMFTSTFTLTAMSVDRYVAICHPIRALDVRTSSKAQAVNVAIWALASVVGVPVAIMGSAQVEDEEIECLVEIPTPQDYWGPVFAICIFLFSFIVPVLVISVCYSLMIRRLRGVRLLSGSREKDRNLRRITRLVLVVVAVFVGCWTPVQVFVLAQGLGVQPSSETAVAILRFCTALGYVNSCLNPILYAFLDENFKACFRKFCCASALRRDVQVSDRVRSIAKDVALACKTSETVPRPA

Activity calls are given as the source filed them. The calls are words filed in the database; no cut-off is given here.

Delta-type opioid receptor, sequence (P41143 whole entry): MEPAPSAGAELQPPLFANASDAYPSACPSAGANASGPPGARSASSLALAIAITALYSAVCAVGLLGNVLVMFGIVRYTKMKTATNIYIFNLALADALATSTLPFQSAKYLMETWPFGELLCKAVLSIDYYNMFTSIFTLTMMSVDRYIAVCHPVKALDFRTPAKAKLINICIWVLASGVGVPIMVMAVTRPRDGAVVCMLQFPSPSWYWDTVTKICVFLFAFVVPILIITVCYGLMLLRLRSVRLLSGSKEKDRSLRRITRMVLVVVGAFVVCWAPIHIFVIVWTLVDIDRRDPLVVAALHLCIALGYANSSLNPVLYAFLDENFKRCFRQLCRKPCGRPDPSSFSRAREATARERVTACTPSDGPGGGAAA
Kappa-type opioid receptor, sequence (P41145 whole entry): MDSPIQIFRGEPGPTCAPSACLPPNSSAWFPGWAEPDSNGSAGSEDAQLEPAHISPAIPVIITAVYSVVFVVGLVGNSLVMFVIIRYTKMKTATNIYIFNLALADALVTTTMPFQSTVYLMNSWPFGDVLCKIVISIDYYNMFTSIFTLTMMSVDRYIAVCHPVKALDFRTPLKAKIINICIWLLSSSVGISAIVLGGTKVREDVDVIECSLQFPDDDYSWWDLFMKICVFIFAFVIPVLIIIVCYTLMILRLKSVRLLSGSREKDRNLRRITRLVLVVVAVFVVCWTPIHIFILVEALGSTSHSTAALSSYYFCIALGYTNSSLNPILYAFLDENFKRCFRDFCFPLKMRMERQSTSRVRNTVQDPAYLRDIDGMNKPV

For the compound `CC[C@@H]1CN2CCc3c([nH]c4cccc(OC)c34)[C@H]2C[C@@H]1/C(=C\OC)C(=O)OC`, the inhibition in [1] is 69.2%; in series [6], 16.8%; in [7], 7%; in series [8], 0%; in series [9], 70.5%; in series [10] it was 98%. Besides, the outcome in [2] and in series [4] was inactive. This compound also gave an MPE in series [3] of 100%. In [5], the Activity entry is listed as “Toxic”.
Regarding `CC[C@@H]1CN2CCc3c([nH]c4cccc(OC)c34)[C@@H]2C[C@@H]1/C(=C\OC)C(=O)OC`, the inhibition is 18.3% in [1]; 13.2% in series [6]; -8% in [7]; 29% in series [14]; 4.3% in [15]; 57.9% in series [9]. In series [10], the inhibition is 93.7%. In addition, the Ki was determined as 1.34 µM in series [11], 5.48 µM in [12] and 9.29 µM in series [13]. In [3] (Rattus norvegicus, Sprague-Dawley, iv, 5 min), this compound had an Emax of 17.3%. Moreover, the outcome in series [4] was inactive. For the same compound, the Activity result in series [5] is given as “Non-Toxic”.
